Where “and” joins values, the source holds several entries; their conditions need not be identical. Identical values can stand only once.
What was measured:
CCL-119 cells [1] = experiment: Alkaline comet assay; assay type: cell-based; details: for DNA damage class / Tail moment / percentage of DNA intensity in the tail / % DNA intensity: 1 hour of exposure
Procedure: VCR was used as a positive control, and untreated cells were used as a negative control in this assay. The cells were incubated for 1 hour. After incubation, cells in each well were transferred to the Eppendorf tube to centrifuge for 5 minutes at 4°C by using a refrigerated microcentrifuge. The supernatant was removed, and the samples were washed with 1 mL of cold PBS. This process was repeated 3 times. After completion of the process, the supernatant was removed, and the pellet was left for a while on top of the ice while preparing the slide.
About 140 µL of normal melting agar (NMA) is pipetted on top of the fully frosted slide, and a cover slip is put on the agar for 5 minutes or until the agar fully solidifies. After that, the cover slip was removed, and 80 µL of low melting agar (LMA) was added to an Eppendorf tube containing the pellet of cells. The suspension was then transferred into a frosted slide with NMA agar. The cover slip was then put back on top of the frosted slide for 10 minutes or until dry. Next, the slide was transferred into a Coplin jar that contained lysis buffer solution and Triton X-100. The slides were then incubated at 4°C overnight. The slides were arranged on an electrophoresis tank filled with electrophoresis buffer for 20 minutes. Electrophoresis is done for another 20 minutes at 25 V with 300 mA. The slides were washed with a neutralization buffer solution 3 times at a 5-minute time interval. Finally, 30 µL of ethidium bromide (50 µg/mL) was added, and the slide was observed by using fluorescence microscopy (OLYMPUS BX51TR). CometScore software is used to analyze the DNA damage of the cells. The comet assay was performed under alkaline conditions (pH > 13) to detect both single- and double-strand DNA breaks.

WIL2-NS cells = test system: WIL2-NS cells; design: method as in Rasli et al. (2023); details: non-cancerous cells; 24 hours of exposure; graph referred to earlier paper; ref Rasli et al. (2023); cited from earlier work
CCL-119 cells [2] = experiment: MTT cytotoxicity assay; details: for cell viability at 0.31 µM / cell viability at 0.63 µM / cell viability at 1.25 µM / cell viability at 2.50 µM / cell viability at 5.00 µM / Selectivity Index (SI): 24 hours; for cell viability at 0.31 µM / cell viability at 0.63 µM / cell viability at 1.25 µM / cell viability at 2.50 µM / cell viability at 5.00 µM: single replicates n1-n3, untreated = 100.00; for cell viability at 2.50 µM: 2.5 µM; for Selectivity Index (SI): IC50 WIL2-NS / IC50 CCL-119; for IC50: read-out: IC50 (µM) CCL-119, 24 hours of exposure, mean ± SEM, n = 3
Procedure: The T-acute lymphoblastic leukemia cell line, CCRF-CEM (CCL-119™), and a non-cancerous cell, WIL2-NS (CRL-8155™), were purchased from the American Type Culture Collection (ATCC). Both are suspension types of cells and were cultured in Roswell Park Memorial Institute Medium 1640 (RPMI-1640) (Sigma-Aldrich), supplemented with 10% Fetal Bovine Serum (FBS) (Capricorn Scientific) and 1% penicillin-streptomycin (Nacalai Tesque) to obtain the complete growth medium and were incubated at 37 °C with a 5% CO2 incubator. Both suspension cells are used for tests when the cells’ passage becomes passage 3–10 (maximum).
All stock solutions of the organotin (IV) dithiocarbamate compounds were prepared at 10 mM and dissolved in dimethyl sulphoxide (DMSO) (ChemAR®). The stock solutions were stored at 4°C; fresh dilutions were made by adding the RPMI-1640 medium before the experiment. The dilution is carried out using the serial dilution method to obtain the desired concentrations, which are 5 µM, 2.5 µM, 1.25 µM, 0.63 µM, 0.32 µM, and 0.16 µM in this study. Vincristine (VCR) is used as a positive control in this study.
Both CCL-119 and WIL2-NS cells were seeded in a 96-well plate at a final concentration of 5 x 10^5 cells/well and treated with 5 µM, 2.5 µM, 1.25 µM, 0.63 µM, 0.32 µM, and 0.16 µM of organotin (IV) dithiocarbamate compound for 24 hours at 37°C with 5% CO2. VCR was used as a positive control in this study, while cells without treatment were used as a negative control. After 24 hours of exposure, 20 µL of MTT (Merck) salt solution was added into each well and incubated for another 4 hours. The plate was wrapped with aluminium foil as MTT salt is light sensitive. After 4 hours, the purple crystal formazan was formed. All the medium was removed carefully from each well, and 200 µL DMSO was added to each well to dissolve the purple formazan crystal. Then, the plates were incubated for an additional 15 minutes. The results were analyzed and recorded using an ELISA microplate reader at 570 nm. The data was then plotted into a graph, and IC50 values were determined.
The selectivity index (SI) is determined by dividing the cytotoxic activity (IC50 value) of each compound on a non-cancerous cell line (WIL2-NS) by the leukemia cell line (CCL-119). […] WIL2- NS cell lines were selected as the comparator because it is a non-cancerous human B lymphoblast cell line, which is like CCL-119 (T-lymphoblastic leukemia), derived from lymphocytes. This choice ensures that comparisons are made between biologically similar cell types, minimizing variability that could arise from differences in tissue origin or lineage.

CCL-119 cells [3] = experiment: Mode of cell death, Annexin V-FITC/PI staining (flow cytometry); assay type: cell-based; details: for Early Apoptosis (Q4) / Late Apoptosis (Q2) / Necrosis (Q1) / Viable (Q3): 24 hours at IC50, single replicates n1-n3; for cell death through apoptosis (population of cells): 24 hours, treated at IC50, early + late apoptosis
Procedure: The mode of cell death can be observed through the Annexin V-FITC/PI staining (BD, USA). The result of this test is either apoptosis or necrosis. […] VCR was used as a positive control, while cells without any treatment were used as a negative control. Then, the plate was incubated for 24 hours. After the incubation, the cell suspension in each well was collected into different Eppendorf tubes. The tubes were then centrifuged for 5 minutes at 1500 rpm at 4°C. After the centrifuge, the supernatant in the tubes was removed, and the cell pellets were washed twice with cold PBS. Then, centrifuge the tubes again and remove the supernatant. Next, 100 µL of Annexin V binding buffer was resuspended in each tube, and 5 µL Annexin V-FITC was pipetted into the tube to stain the cells for 15 minutes at room temperature, dark. After that, 5 µL of propidium iodide was piped into the tube for 5 minutes. The staining process is done in dark conditions. Lastly, the sample was transferred into the Falcon tube, and each tube was resuspended in 400 µL of Annexin V binding buffer. The sample was analyzed using a flow cytometer (BD FACS Canto II) within one hour.

CCL-119 cells [4] = experiment: Cell cycle analysis (PI/RNase staining); assay type: cell-based; details: for cells in G0/G1 phase / cells in G2/M phase / cells in S phase: 24 hours at IC50, single replicates n1-n3
Procedure: The cells were cultured and seeded in a 6-well plate at 1 x 10^6 cells/mL. VCR was used as a positive control, and untreated cells were used as a negative control in this assay. The concentration of the compounds and VCR was followed by IC50 values that were taken from the MTT assay.
After 24 hours of incubation, all cells in the plate were transferred to the Eppendorf tube and centrifuged for 5 minutes at 4°C at 1500 rpm. After centrifuging, the supernatant was removed, and cells were washed with 500 µL cold PBS three times. The pellet was fixed by using 70% ethanol overnight at −20°C. Next, the samples were stained with 500 µL of PI/RNase staining buffer and incubated for 15 minutes. The samples were then transferred into Falcon tubes. The data was recorded using a flow cytometer and analyzed using ModFit LT software.

Question: For `CC(C)N(C(=S)[S][Sn]([S]C(=S)N(C(C)C)C(C)C)([c]1ccccc1)[c]1ccccc1)C(C)C` [ODTC 1, diphenyltin (IV) diisopropyl dithiocarbamate], which “DNA damage / genotoxic effect (in words)” value (CCL-119 cells [1]) is on record?
Answer: Its value is “highest genotoxic effects”.

Question: And the DNA damage class (CCL-119 cells [1])?
Answer: Its DNA damage class is “class 3”.

Question: What about the Tail moment (CCL-119 cells [1]; mean ± SEM) of the same compound?
Answer: The Tail moment was 68.58 ± 3.31 A.U.

Question: And the “percentage of DNA intensity in the tail” value (CCL-119 cells [1]; mean ± SEM)?
Answer: The value was 27.50 ± 2.36%.

Question: What about the “% DNA intensity” value (CCL-119 cells [1]; single replicates n1-n3) of the same compound?
Answer: Its value is 31.5757% and 23.3927% and 27.534%.

Question: And the Tail moment (CCL-119 cells [1]; single replicates n1-n3)?
Answer: The Tail moment was 74.8179 A.U and 67.3969 A.U and 63.5391 A.U.

Question: And the IC50 (WIL2-NS cells)?
Answer: The IC50 was 1.39 ± 0.46 µM.

Question: What about the “cell viability at 0.31 µM” value (CCL-119 cells [2]) of the same compound?
Answer: The value was 68.12% and 70.47% and 62.95%.

Question: And the “cell viability at 0.63 µM” value (CCL-119 cells [2])?
Answer: Its value is 46.30% and 50.11% and 43.95%.

Question: And the “cell viability at 1.25 µM” value (CCL-119 cells [2])?
Answer: Its value is 30.25% and 39.66% and 27.67%.

Question: What about the “cell viability at 2.50 µM” value (CCL-119 cells [2]) of the same compound?
Answer: The value was 11.95% and 23.57% and 13.38%.

Question: What about the “cell viability at 5.00 µM” value (CCL-119 cells [2]) of the same compound?
Answer: Its value is 8.78% and 22.56% and 11.96%.

Question: What about the “Selectivity Index (SI)” value (CCL-119 cells [2]) of the same compound?
Answer: Its value is 2.48.

Question: And the IC50 (CCL-119 cells [2])?
Answer: The IC50 was 0.56 ± 0.04 µM.

Question: And the “Early Apoptosis (Q4)” value (CCL-119 cells [3])?
Answer: Its value is 45.2% and 37.2% and 40.2%.

Question: What about the “Late Apoptosis (Q2)” value (CCL-119 cells [3]) of the same compound?
Answer: Its value is 34.7% and 29.3%.

Question: And the “Necrosis (Q1)” value (CCL-119 cells [3])?
Answer: Its value is 0.2% and 1% and 0.6%.

Question: What about the “Viable (Q3)” value (CCL-119 cells [3]) of the same compound?
Answer: The value was 28.4% and 29.5% and 29.9%.

Question: And the “cell death through apoptosis (population of cells)” value (CCL-119 cells [3])?
Answer: The value was 77.6%.

Question: And the “cells in G0/G1 phase” value (CCL-119 cells [4])?
Answer: Its value is 44.44% and 52.78% and 46.11%.

Question: What about the “cells in G2/M phase” value (CCL-119 cells [4]) of the same compound?
Answer: Its value is 0.17% and 1.28% and 8.00%.

Question: And the “cells in S phase” value (CCL-119 cells [4])?
Answer: The value was 55.38% and 45.94% and 45.89%.

Question: What about the “Phases of Cell Cycle Arrest” value (CCL-119 cells [4]; 24 hours at IC50 concentrations) of the same compound?
Answer: The value was “S phase”.

Question: Which results are given for `C=CCN(CC=C)C(=S)[S][Sn]([S]C(=S)N(CC=C)CC=C)([c]1ccccc1)[c]1ccccc1` [ODTC 2, diphenyltin (IV) diallyl dithiocarbamate]?
Answer: DNA damage / genotoxic effect (in words) (CCL-119 cells [1]): caused detectable DNA damage; DNA damage class (CCL-119 cells [1]): class 2; Tail moment (CCL-119 cells [1]; mean ± SEM): 6.83 ± 2.58 A.U; percentage of DNA intensity in the tail (CCL-119 cells [1]; mean ± SEM): 10.18 ± 0.89%; % DNA intensity (CCL-119 cells [1]; single replicates n1-n3): 9.179% and 9.419% and 11.9522%; Tail moment (CCL-119 cells [1]; single replicates n1-n3): 5.421 A.U and 3.237 A.U and 11.8306 A.U; IC50 (WIL2-NS cells): 0.52 ± 0.14 µM; cell viability at 0.31 µM (CCL-119 cells [2]): 49.85% and 27.71% and 26.10%; cell viability at 0.63 µM (CCL-119 cells [2]): 26.34% and 15.19% and 17.94%; cell viability at 1.25 µM (CCL-119 cells [2]): 29.61% and 16.46% and 16.39%; cell viability at 2.50 µM (CCL-119 cells [2]): 28.76% and 19.14% and 15.77%; cell viability at 5.00 µM (CCL-119 cells [2]): 31.88% and 17.53% and 10.93%; Selectivity Index (SI) (CCL-119 cells [2]): 2.36; IC50 (CCL-119 cells [2]): 0.22 ± 0.04 µM; Early Apoptosis (Q4) (CCL-119 cells [3]): 36.1% and 39.2% and 31.1%; Late Apoptosis (Q2) (CCL-119 cells [3]): 31.5% and 32.9% and 28.1%; Necrosis (Q1) (CCL-119 cells [3]): 1% and 0.6%; Viable (Q3) (CCL-119 cells [3]): 31.4% and 27% and 40.2%; cell death through apoptosis (population of cells) (CCL-119 cells [3]): 66.3%; cells in G0/G1 phase (CCL-119 cells [4]): 51.19% and 55.53% and 53.01%; cells in G2/M phase (CCL-119 cells [4]): 1.93% and 1.68% and 4.38%; cells in S phase (CCL-119 cells [4]): 46.88% and 42.78% and 42.61%

Source: article PMC12338828, “Evaluation of organotin (IV) dithiocarbamate compounds as potential anti-leukemia agents towards CCRF-CEM (CCL-119) cell line: Cytotoxic, apoptotic, cell cycle and genotoxic study” (PLOS One, 2025)
